# Source: patent US12466813B2, “PRC1 inhibitors and methods of treatment therewith” (The Regents of the University of Michigan, priority 2018, dated 2025)
# Entries after “also recorded” stand apart in the source; their conditions may differ.
# Key:
# RING1B-BMI1 [1] = target: T1, RING1B-BMI1 (Homo sapiens, UniProt Q99496); experiment: ITC binding of COMPOUND 1 to RING1B-BMI1
# T1 sequence (Q99496 1-336): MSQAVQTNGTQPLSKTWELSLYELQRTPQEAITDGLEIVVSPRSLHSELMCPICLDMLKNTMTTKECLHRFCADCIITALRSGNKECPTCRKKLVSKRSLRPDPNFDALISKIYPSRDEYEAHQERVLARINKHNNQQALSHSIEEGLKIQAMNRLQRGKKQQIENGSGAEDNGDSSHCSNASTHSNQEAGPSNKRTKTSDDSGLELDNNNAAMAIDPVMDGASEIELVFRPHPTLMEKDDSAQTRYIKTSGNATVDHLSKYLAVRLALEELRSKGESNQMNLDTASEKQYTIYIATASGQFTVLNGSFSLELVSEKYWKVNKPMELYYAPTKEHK
# T1 sequence (P35226 1-326 partner): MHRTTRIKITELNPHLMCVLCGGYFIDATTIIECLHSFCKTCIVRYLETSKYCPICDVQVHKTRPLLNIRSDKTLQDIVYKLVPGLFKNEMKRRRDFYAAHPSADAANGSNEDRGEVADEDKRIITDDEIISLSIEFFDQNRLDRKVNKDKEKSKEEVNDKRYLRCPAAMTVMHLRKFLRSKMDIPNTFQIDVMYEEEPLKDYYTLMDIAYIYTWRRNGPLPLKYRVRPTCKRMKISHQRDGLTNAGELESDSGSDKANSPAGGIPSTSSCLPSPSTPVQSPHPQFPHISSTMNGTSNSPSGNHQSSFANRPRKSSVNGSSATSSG
# Procedure: FIG. 1. […] A. structure of COMPOUND 1. B. ITC experiments showing the binding of COMPOUND 1 to RING1B-BMI1. C. Assigned NMR spectrum of RING1B-BMI1 with DMSO and COMPOUND 1 in 1-2 molar ratio.
# (§1) Experiments were conducted during development of embodiments herein to develop small molecule inhibitors of PRC1 by targeting the Ring1B-BMI1 E3 ligase. These compounds bind directly to Ring1B-Bmi1 with low-micromolar affinity and inhibit PRC1 in vitro and in cells. […] Experiments were conducted during development of embodiments herein to test COMPOUND 1 in leukemia stem cell models represented by TEX cells (Ref. 22; herein incorporated by reference in its entirety) and M9-ENL1 cells (Ref. 23; herein incorporated by reference in its entirety). […] In some embodiments, COMPOUND 1 and COMPOUND 1 analogs are find use as agents in targeting leukemia and other cancer stem cells.
# RING1B-BMI1 [2] = target: T1, RING1B-BMI1; experiment: KD classes of Table A (direct binding to Ring1B-Bmi1); settings: class given in Table A
# RING1B-BMI1 [3] = target: T1, RING1B-BMI1; experiment: RING1B-BMI1 E3 ligase (H2Aub) activity in vitro; assay type: biochemical
# Procedure: (§2) FIG. 2. COMPOUND 1 inhibits PRC1 in vitro. […] C.
# as §1
# RING1B-PCGF1 = target: T2, RING1B-PCGF1 (Homo sapiens, UniProt Q99496); experiment: RING1B-PCGF1 E3 ligase activity in vitro; assay type: biochemical; settings: FIG. 2B
# T2 sequence (Q99496 1-336): T1 sequence (Q99496 1-336)
# T2 sequence (Q9BSM1 1-259 partner): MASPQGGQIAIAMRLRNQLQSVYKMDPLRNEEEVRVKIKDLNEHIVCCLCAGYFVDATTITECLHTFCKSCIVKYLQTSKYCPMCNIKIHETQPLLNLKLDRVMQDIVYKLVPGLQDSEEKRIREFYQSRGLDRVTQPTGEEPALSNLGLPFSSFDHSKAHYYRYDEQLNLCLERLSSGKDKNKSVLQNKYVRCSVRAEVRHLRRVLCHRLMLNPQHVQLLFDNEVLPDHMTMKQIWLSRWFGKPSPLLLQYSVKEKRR
# Text: as §2
# BRCA1-BARD1 = BRCA1-BARD1 (Homo sapiens, UniProt P38398+Q99728); experiment: BRCA1-BARD1 E3 ligase selectivity; assay type: biochemical; settings: FIG. 2
# Sequence of BRCA1-BARD1 (P38398 whole entry): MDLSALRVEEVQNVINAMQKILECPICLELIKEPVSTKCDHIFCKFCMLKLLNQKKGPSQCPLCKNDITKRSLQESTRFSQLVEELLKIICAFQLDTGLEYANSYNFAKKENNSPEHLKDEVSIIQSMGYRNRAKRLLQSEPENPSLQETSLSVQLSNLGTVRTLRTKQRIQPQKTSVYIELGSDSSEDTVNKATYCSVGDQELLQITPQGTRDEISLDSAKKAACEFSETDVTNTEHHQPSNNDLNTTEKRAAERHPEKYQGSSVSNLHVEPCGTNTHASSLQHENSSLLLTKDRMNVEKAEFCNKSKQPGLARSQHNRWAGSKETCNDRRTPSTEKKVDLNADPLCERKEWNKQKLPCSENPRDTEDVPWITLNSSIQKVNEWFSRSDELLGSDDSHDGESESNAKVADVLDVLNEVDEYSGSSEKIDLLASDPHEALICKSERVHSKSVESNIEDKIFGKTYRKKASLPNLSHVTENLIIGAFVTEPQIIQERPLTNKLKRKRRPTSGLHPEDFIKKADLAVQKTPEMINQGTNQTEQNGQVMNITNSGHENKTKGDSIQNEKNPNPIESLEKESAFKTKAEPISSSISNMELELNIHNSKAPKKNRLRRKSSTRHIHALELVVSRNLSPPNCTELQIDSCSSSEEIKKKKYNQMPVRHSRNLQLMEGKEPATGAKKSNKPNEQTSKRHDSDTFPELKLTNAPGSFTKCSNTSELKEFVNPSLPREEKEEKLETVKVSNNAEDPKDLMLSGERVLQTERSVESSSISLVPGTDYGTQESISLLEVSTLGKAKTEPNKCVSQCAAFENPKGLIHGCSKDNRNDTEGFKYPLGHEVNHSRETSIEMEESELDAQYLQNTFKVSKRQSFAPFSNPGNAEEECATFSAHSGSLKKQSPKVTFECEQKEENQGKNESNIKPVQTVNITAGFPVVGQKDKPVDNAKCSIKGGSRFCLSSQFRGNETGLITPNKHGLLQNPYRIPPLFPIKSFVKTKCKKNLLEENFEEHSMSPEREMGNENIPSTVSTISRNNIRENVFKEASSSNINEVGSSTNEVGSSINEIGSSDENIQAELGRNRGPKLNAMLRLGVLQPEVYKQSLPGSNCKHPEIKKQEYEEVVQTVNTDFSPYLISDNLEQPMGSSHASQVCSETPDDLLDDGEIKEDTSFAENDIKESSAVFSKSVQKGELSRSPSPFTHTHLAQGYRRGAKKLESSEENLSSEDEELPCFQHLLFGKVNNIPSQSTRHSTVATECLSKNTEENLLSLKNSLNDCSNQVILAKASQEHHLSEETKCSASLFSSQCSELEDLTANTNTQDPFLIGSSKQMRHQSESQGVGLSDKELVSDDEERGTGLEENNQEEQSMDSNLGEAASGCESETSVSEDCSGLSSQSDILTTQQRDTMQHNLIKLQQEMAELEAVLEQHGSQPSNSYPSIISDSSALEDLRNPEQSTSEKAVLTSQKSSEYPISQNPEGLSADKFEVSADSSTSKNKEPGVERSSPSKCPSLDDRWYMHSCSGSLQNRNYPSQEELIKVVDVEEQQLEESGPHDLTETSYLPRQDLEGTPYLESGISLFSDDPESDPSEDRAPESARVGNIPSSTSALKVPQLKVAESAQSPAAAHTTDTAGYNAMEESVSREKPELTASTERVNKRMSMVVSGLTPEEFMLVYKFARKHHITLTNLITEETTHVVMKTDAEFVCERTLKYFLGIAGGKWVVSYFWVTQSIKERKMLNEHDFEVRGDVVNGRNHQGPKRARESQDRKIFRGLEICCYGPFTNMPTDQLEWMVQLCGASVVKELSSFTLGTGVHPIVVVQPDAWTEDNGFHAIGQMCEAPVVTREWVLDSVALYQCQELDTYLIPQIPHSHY
# Sequence of BRCA1-BARD1 (Q99728 whole entry): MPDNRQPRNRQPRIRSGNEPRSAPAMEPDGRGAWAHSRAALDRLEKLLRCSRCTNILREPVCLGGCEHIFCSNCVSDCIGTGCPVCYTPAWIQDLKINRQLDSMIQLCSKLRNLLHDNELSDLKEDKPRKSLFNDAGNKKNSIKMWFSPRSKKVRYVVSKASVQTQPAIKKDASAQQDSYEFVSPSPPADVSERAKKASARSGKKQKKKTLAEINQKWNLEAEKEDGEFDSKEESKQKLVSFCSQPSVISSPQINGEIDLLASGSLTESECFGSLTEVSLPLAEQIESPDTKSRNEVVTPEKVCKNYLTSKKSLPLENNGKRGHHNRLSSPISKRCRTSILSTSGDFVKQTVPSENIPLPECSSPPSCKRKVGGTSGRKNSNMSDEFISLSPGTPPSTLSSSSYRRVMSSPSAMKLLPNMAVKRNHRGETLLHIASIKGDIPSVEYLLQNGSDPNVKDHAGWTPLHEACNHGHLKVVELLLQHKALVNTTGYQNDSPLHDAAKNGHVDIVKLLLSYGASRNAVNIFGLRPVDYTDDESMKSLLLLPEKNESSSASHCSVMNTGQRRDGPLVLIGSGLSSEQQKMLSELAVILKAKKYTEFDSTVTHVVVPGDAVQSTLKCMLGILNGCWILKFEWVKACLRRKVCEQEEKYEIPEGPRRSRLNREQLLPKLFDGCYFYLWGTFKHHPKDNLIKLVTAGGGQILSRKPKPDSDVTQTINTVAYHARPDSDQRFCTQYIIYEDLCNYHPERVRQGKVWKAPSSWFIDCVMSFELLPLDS
# Procedure: as §2, §1
# TRIM37 = target: T3, TRIM37 (Homo sapiens, UniProt O94972); experiment: TRIM37 E3 ligase selectivity; assay type: biochemical; settings: FIG. 2
# T3 sequence (O94972 1-964): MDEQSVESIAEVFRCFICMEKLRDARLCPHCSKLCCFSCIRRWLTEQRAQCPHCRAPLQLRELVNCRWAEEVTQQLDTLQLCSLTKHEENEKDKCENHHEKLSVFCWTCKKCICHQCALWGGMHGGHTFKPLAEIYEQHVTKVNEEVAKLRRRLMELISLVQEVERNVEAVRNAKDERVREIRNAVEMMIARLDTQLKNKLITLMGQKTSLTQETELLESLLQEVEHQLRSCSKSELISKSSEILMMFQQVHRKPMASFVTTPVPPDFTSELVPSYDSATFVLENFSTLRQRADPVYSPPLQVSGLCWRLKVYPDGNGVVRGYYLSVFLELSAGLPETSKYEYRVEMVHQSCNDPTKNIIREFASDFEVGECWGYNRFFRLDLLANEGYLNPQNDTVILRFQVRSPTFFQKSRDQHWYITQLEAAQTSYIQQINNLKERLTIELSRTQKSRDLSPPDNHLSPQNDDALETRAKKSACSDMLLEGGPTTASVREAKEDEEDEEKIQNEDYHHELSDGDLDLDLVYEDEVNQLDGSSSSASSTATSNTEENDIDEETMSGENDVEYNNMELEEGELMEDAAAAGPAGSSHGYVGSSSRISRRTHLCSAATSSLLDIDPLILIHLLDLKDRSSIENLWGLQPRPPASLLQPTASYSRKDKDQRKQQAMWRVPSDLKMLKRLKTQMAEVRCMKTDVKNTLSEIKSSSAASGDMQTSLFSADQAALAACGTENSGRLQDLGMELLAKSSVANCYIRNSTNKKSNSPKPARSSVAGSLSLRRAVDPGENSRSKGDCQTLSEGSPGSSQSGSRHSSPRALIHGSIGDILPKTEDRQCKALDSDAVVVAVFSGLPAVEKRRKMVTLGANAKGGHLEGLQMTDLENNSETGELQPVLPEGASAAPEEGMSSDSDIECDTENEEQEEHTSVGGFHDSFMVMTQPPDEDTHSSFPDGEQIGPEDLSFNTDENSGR
# Procedure: as §2, §1
# [4] = target: T4, RING1B-BMI1 interaction with nucleosome (Homo sapiens, UniProt Q99496); experiment: EMSA assay, RING1B-BMI1 interaction with nucleosome; assay type: binding; settings: FIG. 2D
# T4 sequence (Q99496 1-336): T1 sequence (Q99496 1-336)
# T4 sequence (P35226 1-326 partner): T1 sequence (P35226 1-326 partner)
# Text: as §2
# [5] = tested on: PRC1 complex in leukemia K562 cells; experiment: H2Aub level / PRC1 activity in K562 cells; assay type: cell-based; settings: FIG. 3
# Procedure: FIG. 3. COMPOUND 1 inhibits PRC1 in K562 cells. Knockdown of BMI1 and RING1B in K562 cells results in decrease in H2Aub.
# as §1
# H2Aub in TEX cells = experiment: H2Aub, RNA-seq and ChIP-seq in TEX cells; assay type: cell-based; settings: FIG. 4
# Procedure: (§3) FIGS. 4A-F. COMPOUND 1 inhibits PRC1 in TEX cells. FIG. 4A. Inhibition of H2Aub in TEX cells. FIG. 4B. Differentiation of TEX cells upon treatment with COMPOUND 1. […] FIG. 4C. GSEA analysis of TEX cells showing revers of stem cell signature. FIG. 4D. […] FIG. 4E. Gene expression changes upon treatment with COMPOUND 1. FIG. 4F.
# as §1
# TEX cells = experiment: Differentiation and CD34 marker of TEX cells; assay type: cell-based; settings: FIG. 4
# Procedure: as §3, §1
# M9-ENL1 cells [6] = experiment: Colony formation of M9-ENL1 cells; assay type: cell-based; settings: FIG. 5
# Procedure: as §1
# M9-ENL1 cells [7] = experiment: Transplantation of treated M9-ENL1 cells into mice; assay type: in vivo; settings: then transplanted into mice, FIG. 5
# Procedure: as §1
# primary AML samples = experiment: Primary AML samples: H2Aub, colony formation, CD34; assay type: cell-based; settings: FIG. 6
smiles,measurement,setting,value
"CC(C)c1c(-c2cccc3[nH]ccc23)[nH]c(C(=O)O)c1-c1c(Cl)ccc2[nH]ccc12 [COMPOUND 1, 3-(5-Chloro-1H-indol-4-yl)-5-(1H-indol-4-yl)-4-isopropyl-1H-pyrrole-2-carboxylic acid]",binding to RING1B-BMI1,"RING1B-BMI1 [1]; ITC and NMR, FIG. 1",binds to RING1B-BMI1
same,Kd,"RING1B-BMI1 [1]; binds directly to Ring1B-Bmi1, FIG. 1",2600 nM
same,Kd,RING1B-BMI1 [2],< 20000 nM
same,IC50,RING1B-BMI1 [3]; FIG. 2,~2000 nM
same,RING1B-BMI1 H2Aub activity,"RING1B-BMI1 [3]; in vitro, FIG. 2A",inhibits RING1B-BMI1 H2Aub activity
same,RING1B-PCGF1 activity,RING1B-PCGF1,inhibits RING1B-PCGF1 activity
same,inhibition of BRCA1-BARD1 E3 ligase,BRCA1-BARD1,does not inhibit
same,inhibition of TRIM37 E3 ligase,TRIM37,does not inhibit
same,RING1B-BMI1 interaction with nucleosome,[4],inhibits RINIG1B-BMI1 interaction with nucleosome
same,PRC1 activity / H2Aub level in K562 cells,[5],blocks the activity of PRC1 complex; also recorded: decreases H2Aub level
same,H2Aub in TEX cells,H2Aub in TEX cells,inhibits H2Aub
same,global H2Aub (ChIP-seq),H2Aub in TEX cells,global decrease in H2Aub
same,leukemia stem cell signature (RNA-seq),H2Aub in TEX cells,reversing leukemia stem cell signature
same,differentiation of TEX cells,TEX cells,induces differentiation
same,stem cell marker CD34,TEX cells,loss of stem cell marker CD34
same,colony formation of M9-ENL1 cells,M9-ENL1 cells [6],effective in blocking colony formation
same,engraftment and leukemia development,M9-ENL1 cells [7],strongly decreases engraftment and leukemia development
same,H2Aub in primary AML samples,primary AML samples,decreases H2Aub
same,"colony formation, primary AML samples",primary AML samples,inhibits colony formation
same,"stem cell marker CD34, primary AML samples",primary AML samples,decrease stem sell marker CD34
